From ChEMBL document CHEMBL1201862, “PubChem BioAssay data set” (2004)
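These data come from cells grown in 96-well plates and exposed to compound for 48 hours at five concentrations. Here, GI50 denotes the concentration required for 50% inhibition of growth.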 Activity calls are given as the source filed them. Rule as the data show it: active = GI50 up to about 1.1 µM and inactive = higher.

Assays:
Assay in all cases: DTP human tumour cell line panel, 48 h
[1] = tested on: SF-268
[2] = tested on: IGROV-1
[3] = tested on: HCC 2998
[4] = tested on: NCI-H23
[5] = tested on: CCRF-CEM
[6] = tested on: HCT-116
[7] = tested on: EKVX
[8] = tested on: HOP-92
[9] = tested on: MDA-N
[10] = tested on: U-251
[11] = tested on: MDA-MB-231
[12] = tested on: LOX IMVI
[13] = tested on: KM12
[14] = tested on: K562
[15] = tested on: A498
[16] = tested on: PC-3
[17] = tested on: SK-MEL-5
[18] = tested on: OVCAR-4
[19] = tested on: OVCAR-3

SMILES | GI50 [1] | GI50 [2] | GI50 [3] | GI50 [4] | GI50 [5] | GI50 [6] | GI50 [7] | GI50 [8] | GI50 [9] | GI50 [10] | GI50 [11] | GI50 [12] | GI50 [13] | GI50 [14] | GI50 [15] | GI50 [16] | GI50 [17] | GI50 [18] | GI50 [19]
CCSC1=C(C#N)C2(CCCCC2)C2=C(O)CC(C)(C)CC2=N1 | 45 µM (inactive) | 26.5 µM (inactive) | 1.01 µM (active) | 32.4 µM (inactive) | > 100 µM (inactive) | > 100 µM (inactive) | 24.3 µM (inactive) | 11.4 µM (inactive) | > 100 µM (inactive) | 29.9 µM (inactive) | 45.3 µM (inactive) | > 100 µM (inactive) | > 100 µM (inactive) | > 100 µM (inactive) | 24.4 µM (inactive) | 28.9 µM (inactive) | 40.9 µM (inactive) | 18.8 µM (inactive) | 
CCOC1(OCC)C2C=CC1C(COS(=O)(=O)c1ccc(C)cc1)C2COS(=O)(=O)c1ccc(C)cc1 (stereo not drawn) | 19.6 µM (inactive) | 43.1 µM (inactive) | 38.3 µM (inactive) | 39.1 µM (inactive) | 20 µM (inactive) | 21.5 µM (inactive) | 22.4 µM (inactive) | 12.8 µM (inactive) | 28.8 µM (inactive) | 29.9 µM (inactive) | 22.1 µM (inactive) | 24.9 µM (inactive) | 31.1 µM (inactive) | 20.5 µM (inactive) | 24 µM (inactive) | 11.6 µM (inactive) | 15.2 µM (inactive) | 20.8 µM (inactive) | 22.5 µM (inactive)
OC1[C@H](O)CN(OCc2ccccc2)C[C@@H]1O (stereo partly drawn) | > 100 µM (inactive) | > 100 µM (inactive) | > 100 µM (inactive) | > 100 µM (inactive) | > 100 µM (inactive) | > 100 µM (inactive) | > 100 µM (inactive) | > 100 µM (inactive) | > 100 µM (inactive) | > 100 µM (inactive) | > 100 µM (inactive) | > 100 µM (inactive) | > 100 µM (inactive) | > 100 µM (inactive) | > 100 µM (inactive) | > 100 µM (inactive) | > 100 µM (inactive) | > 100 µM (inactive) | > 100 µM (inactive)
CC1OC(OCC2OC(Oc3ccc(C4CC(=O)c5c(O)cc(O)cc5O4)cc3O)C(O)C(O)C2O)C(O)C(O)C1O (stereo not drawn) | > 100 µM (inactive) | > 100 µM (inactive) | > 100 µM (inactive) | > 100 µM (inactive) | > 100 µM (inactive) | > 100 µM (inactive) | > 100 µM (inactive) | > 100 µM (inactive) | > 100 µM (inactive) | > 100 µM (inactive) | > 100 µM (inactive) | > 100 µM (inactive) | > 100 µM (inactive) | > 100 µM (inactive) | > 100 µM (inactive) | > 100 µM (inactive) | > 100 µM (inactive) | > 100 µM (inactive) | > 100 µM (inactive)
COc1cc(C2c3cc4c(cc3OC(O)C2C)OCO4)cc(OC)c1O (stereo not drawn) | 15.8 µM (inactive) | 8.55 µM (inactive) | 10.9 µM (inactive) | 28.8 µM (inactive) | 5.19 µM (inactive) | 3.95 µM (inactive) | 19.2 µM (inactive) | 15.9 µM (inactive) | 1.84 µM (inactive) | 7.16 µM (inactive) | 10.1 µM (inactive) | 8.67 µM (inactive) | 4.76 µM (inactive) | 3.04 µM (inactive) | 23 µM (inactive) | 8.49 µM (inactive) | 4.66 µM (inactive) | 35.1 µM (inactive) | 4.24 µM (inactive)
CCCCCCCCCCCNC=O | 49.1 µM (inactive) | 84.7 µM (inactive) | 24.4 µM (inactive) | 44.5 µM (inactive) | 26.5 µM (inactive) | 33.6 µM (inactive) | 52.8 µM (inactive) | 54.3 µM (inactive) | 56.6 µM (inactive) | 25.9 µM (inactive) | 48.6 µM (inactive) | 51.9 µM (inactive) | 45.3 µM (inactive) | 23.7 µM (inactive) | 22.4 µM (inactive) | 23.9 µM (inactive) | 36.9 µM (inactive) | 45.3 µM (inactive) | 35.4 µM (inactive)
CN(C)c1ccc(C(=NN)c2ccc(N(C)C)cc2)cc1 | 8.91 µM (inactive) | 0.746 µM (active) | 0.551 µM (active) | 1.46 µM (inactive) | 0.394 µM (active) | 0.532 µM (active) | 4.74 µM (inactive) | 14.5 µM (inactive) | 0.0818 µM (active) | 0.486 µM (active) | 0.526 µM (active) | 0.966 µM (active) | 0.358 µM (active) | 0.229 µM (active) | 4.93 µM (inactive) | 0.755 µM (active) | 0.447 µM (active) | 9.62 µM (inactive) | 0.798 µM (active)
CC(=O)C1=C(C)N(c2ccccc2)C2(O)C3=C(C(=O)c4ccccc4C3=O)C(O)=CC12Cl (stereo not drawn) | 6.73 µM (inactive) | 2.71 µM (inactive) | 4.63 µM (inactive) | 6.55 µM (inactive) | 0.65 µM (active) | 5.96 µM (inactive) | 8.51 µM (inactive) | 7.08 µM (inactive) | 2.94 µM (inactive) | 4.76 µM (inactive) | 10.7 µM (inactive) | 3.56 µM (inactive) | 4.17 µM (inactive) | 6.04 µM (inactive) | 13 µM (inactive) | 7.28 µM (inactive) | 2.91 µM (inactive) | 3.08 µM (inactive) | 4.2 µM (inactive)
Cc1ccc2c(c1)C(=O)/C(=C\c1ccccc1)CCS2(=O)=O | 15.1 µM (inactive) | 9.68 µM (inactive) | 12.2 µM (inactive) | 12.7 µM (inactive) | 1.07 µM (active) | 6.43 µM (inactive) | 22.1 µM (inactive) | 12.9 µM (inactive) | 16.9 µM (inactive) | 4.69 µM (inactive) | 12.7 µM (inactive) | 10.7 µM (inactive) | 10.5 µM (inactive) | 2.32 µM (inactive) | 19.7 µM (inactive) | 10.4 µM (inactive) | 11.6 µM (inactive) | 12 µM (inactive) | 13.1 µM (inactive)
CC(C)(C)OC(=O)c1ccc(NCC2=CC(=O)C=CC2=O)cc1 | 11.5 µM (inactive) | 11.6 µM (inactive) | 20 µM (inactive) | 8.61 µM (inactive) | 1.76 µM (inactive) | 13.2 µM (inactive) | 14.8 µM (inactive) | 1.93 µM (inactive) | 12.5 µM (inactive) | 14 µM (inactive) | 8.34 µM (inactive) | 10.7 µM (inactive) | 14.5 µM (inactive) | 2.75 µM (inactive) | 15.2 µM (inactive) | 12 µM (inactive) | 14.4 µM (inactive) | 8.85 µM (inactive) | 4.15 µM (inactive)
O=C(NN1CCCCC1)c1cc2cc(CCl)ccc2oc1=O | 16.4 µM (inactive) | 19.4 µM (inactive) | 13.9 µM (inactive) | 16.5 µM (inactive) | 17.2 µM (inactive) | 18.2 µM (inactive) | 14.2 µM (inactive) | 10.4 µM (inactive) | 15.7 µM (inactive) | 16.9 µM (inactive) | 20.6 µM (inactive) | 18.5 µM (inactive) | 22.1 µM (inactive) | 16.7 µM (inactive) | 75.2 µM (inactive) | 14.8 µM (inactive) | 17.7 µM (inactive) | 18.4 µM (inactive) | 20.4 µM (inactive)
O=[N+]([O-])c1cc2oc(COc3ccccc3)nc2cc1Cl | 47.4 µM (inactive) | 19.5 µM (inactive) | 20 µM (inactive) | 17.1 µM (inactive) | 27.5 µM (inactive) | 19 µM (inactive) | 21.9 µM (inactive) | 22.5 µM (inactive) | 25.9 µM (inactive) | 22.8 µM (inactive) | 30.5 µM (inactive) | 16.7 µM (inactive) | 20.9 µM (inactive) | 40 µM (inactive) | 33.1 µM (inactive) | 38.4 µM (inactive) | 12.7 µM (inactive) | 34.9 µM (inactive) | 17.9 µM (inactive)
Clc1ccc(COC(Cn2ccnc2)c2ccc(Cl)cc2Cl)cc1 (stereo not drawn) [ECONAZOLE] | 14.3 µM (inactive) | 11.9 µM (inactive) | 14.6 µM (inactive) | 13.1 µM (inactive) | 8.49 µM (inactive) | 8.71 µM (inactive) | 11.8 µM (inactive) | 10.6 µM (inactive) | 14.1 µM (inactive) | 13.2 µM (inactive) | 13.3 µM (inactive) | 6.98 µM (inactive) | 14 µM (inactive) | 4.76 µM (inactive) | 14.2 µM (inactive) | 10.8 µM (inactive) |  | 11.8 µM (inactive) | 10.9 µM (inactive)
COc1c2occc2cc2ccc(=O)oc12 [METHOXSALEN] |  |  | > 100 µM (inactive) | > 100 µM (inactive) | > 100 µM (inactive) | > 100 µM (inactive) |  | > 100 µM (inactive) | > 100 µM (inactive) | > 100 µM (inactive) | > 100 µM (inactive) | > 100 µM (inactive) |  | > 100 µM (inactive) | > 100 µM (inactive) | > 100 µM (inactive) | > 100 µM (inactive) | > 100 µM (inactive) | > 100 µM (inactive)
O=c1ccc2ccc(O)cc2o1 [UMBELLIFERONE] | > 100 µM (inactive) | > 100 µM (inactive) | 88.7 µM (inactive) | > 100 µM (inactive) | > 100 µM (inactive) | > 100 µM (inactive) | > 100 µM (inactive) | > 100 µM (inactive) | > 100 µM (inactive) | > 100 µM (inactive) | > 100 µM (inactive) | > 100 µM (inactive) | > 100 µM (inactive) |  | > 100 µM (inactive) | > 100 µM (inactive) | > 100 µM (inactive) | > 100 µM (inactive) | > 100 µM (inactive)
